Reference: ChEMBL document CHEMBL1201862, “PubChem BioAssay data set” (2004)
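All cell lines were grown in 96-well plates and treated with compound for 48 hours. GI50 marks 50% less growth.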 Calls of active or inactive are those of the source. Cut-off read from the data, not from the text of the source: active = GI50 up to about 1.1 µM and inactive = higher.

Key:
Test in all cases: growth of human tumour cells (NCI), 48 h
UO-31 = test system: UO-31
Malme-3M = test system: Malme-3M
BT-549 = test system: BT-549
MCF7 = test system: MCF7
PC-3 = test system: PC-3
SK-MEL-2 = test system: SK-MEL-2
SF-539 = test system: SF-539
COLO 205 = test system: COLO 205
SK-OV-3 = test system: SK-OV-3
MDA-N = test system: MDA-N
HT-29 = test system: HT-29
RXF 393 = test system: RXF 393
SN12C = test system: SN12C
M14 = test system: M14
SR = test system: SR
IGROV-1 = test system: IGROV-1
HOP-92 = test system: HOP-92
A549 = test system: A549
SNB-75 = test system: SNB-75
HL-60 = test system: HL-60

Structure (SMILES) | GI50 (UO-31) | GI50 (Malme-3M) | GI50 (BT-549) | GI50 (MCF7) | GI50 (PC-3) | GI50 (SK-MEL-2) | GI50 (SF-539) | GI50 (COLO 205) | GI50 (SK-OV-3) | GI50 (MDA-N) | GI50 (HT-29) | GI50 (RXF 393) | GI50 (SN12C) | GI50 (M14) | GI50 (SR) | GI50 (IGROV-1) | GI50 (HOP-92) | GI50 (A549) | GI50 (SNB-75) | GI50 (HL-60)
CN(C)CCCNc1cc(O)c2c(c1O)C(=O)c1ccccc1C2=O | 1.69 µM (inactive) | 31.3 µM (inactive) | 17 µM (inactive) | 11.6 µM (inactive) | 13.8 µM (inactive) | 19.8 µM (inactive) | 12.1 µM (inactive) | 11.5 µM (inactive) | 12.2 µM (inactive) | 14.3 µM (inactive) | 11 µM (inactive) | 4.59 µM (inactive) | 3.48 µM (inactive) | 5.38 µM (inactive) | 3.01 µM (inactive) | 10.6 µM (inactive) | 12.3 µM (inactive) | 10.9 µM (inactive) | – | –
c1cncc(CNCCN2CCNCC2)c1 | > 100 µM (inactive) | > 100 µM (inactive) | > 100 µM (inactive) | > 100 µM (inactive) | > 100 µM (inactive) | > 100 µM (inactive) | > 100 µM (inactive) | > 100 µM (inactive) | > 100 µM (inactive) | > 100 µM (inactive) | > 100 µM (inactive) | > 100 µM (inactive) | > 100 µM (inactive) | > 100 µM (inactive) | > 100 µM (inactive) | > 100 µM (inactive) | > 100 µM (inactive) | > 100 µM (inactive) | > 100 µM (inactive) | –
O[C@@]12Cc3c([nH]c4ccccc34)[C@@H]3Oc4c(-c5ccccc5)ccc5c4[C@@]31CCN(CC1CC1)[C@@H]2C5 | 1.74 µM (inactive) | 1.9 µM (inactive) | 10.8 µM (inactive) | 1.83 µM (inactive) | 1.84 µM (inactive) | 1.84 µM (inactive) | – | 1.81 µM (inactive) | 2.95 µM (inactive) | 1.73 µM (inactive) | 1.77 µM (inactive) | – | – | 1.82 µM (inactive) | 2.79 µM (inactive) | 4.07 µM (inactive) | 5.19 µM (inactive) | 1.89 µM (inactive) | – | 2.06 µM (inactive)
O=C1N(c2ccccc2)C(=S)/C(=C/c2ccc(Cl)cc2)N1c1ccc(Cl)cc1 | 28.5 µM (inactive) | 20.6 µM (inactive) | 44.4 µM (inactive) | 81.1 µM (inactive) | > 100 µM (inactive) | 43.7 µM (inactive) | 21.1 µM (inactive) | 27.5 µM (inactive) | 27.1 µM (inactive) | 32.9 µM (inactive) | 59.3 µM (inactive) | 33.2 µM (inactive) | 52 µM (inactive) | 61.9 µM (inactive) | 0.571 µM (active) | 41.3 µM (inactive) | – | > 100 µM (inactive) | 12.6 µM (inactive) | 32.5 µM (inactive)
N#Cc1nc(-c2ccccn2)c(-c2ccccn2)nc1C#N | 1.3 µM (inactive) | 1.45 µM (inactive) | 2.36 µM (inactive) | 1.22 µM (inactive) | 4.88 µM (inactive) | 3.59 µM (inactive) | 4.19 µM (inactive) | 1.97 µM (inactive) | 1.6 µM (inactive) | 2.61 µM (inactive) | 2.82 µM (inactive) | 3.58 µM (inactive) | 4.82 µM (inactive) | 1.59 µM (inactive) | 1.82 µM (inactive) | 1.43 µM (inactive) | 7.96 µM (inactive) | 1.14 µM (inactive) | 8.05 µM (inactive) | –
CCn1c(SCC(=O)NNC(=S)Nc2ccc(C)cc2)nc2ccccc2c1=O | 22 µM (inactive) | > 100 µM (inactive) | > 100 µM (inactive) | > 100 µM (inactive) | > 100 µM (inactive) | > 100 µM (inactive) | > 100 µM (inactive) | > 100 µM (inactive) | > 100 µM (inactive) | > 100 µM (inactive) | > 100 µM (inactive) | > 100 µM (inactive) | > 100 µM (inactive) | > 100 µM (inactive) | 40.6 µM (inactive) | > 100 µM (inactive) | – | > 100 µM (inactive) | > 100 µM (inactive) | > 100 µM (inactive)
O=C(O)c1nc2ccccc2nc1NCc1ccc(F)cc1 | 45.3 µM (inactive) | – | > 100 µM (inactive) | 86.5 µM (inactive) | > 100 µM (inactive) | 94.4 µM (inactive) | > 100 µM (inactive) | 31.9 µM (inactive) | – | > 100 µM (inactive) | 69.5 µM (inactive) | > 100 µM (inactive) | > 100 µM (inactive) | > 100 µM (inactive) | 42.4 µM (inactive) | 46.6 µM (inactive) | 95.1 µM (inactive) | 57.7 µM (inactive) | > 100 µM (inactive) | 45.8 µM (inactive)
O=C(Nc1ccc(Cl)cc1)c1cc(S(=O)(=O)N2CCNNC2=O)c(S)cc1Cl | > 100 µM (inactive) | > 100 µM (inactive) | 35.7 µM (inactive) | > 100 µM (inactive) | > 100 µM (inactive) | > 100 µM (inactive) | > 100 µM (inactive) | > 100 µM (inactive) | – | > 100 µM (inactive) | – | 17.4 µM (inactive) | > 100 µM (inactive) | > 100 µM (inactive) | > 100 µM (inactive) | > 100 µM (inactive) | 28.8 µM (inactive) | > 100 µM (inactive) | > 100 µM (inactive) | > 100 µM (inactive)
O=C1/C(=C/Cc2ccco2)N=C(c2ccccc2)N1c1nc2c(Cl)cc(Cl)cc2s1 | 26.2 µM (inactive) | – | 26 µM (inactive) | 25.6 µM (inactive) | 28.3 µM (inactive) | 23.7 µM (inactive) | 23 µM (inactive) | 40.5 µM (inactive) | 35.2 µM (inactive) | 20.9 µM (inactive) | 30.8 µM (inactive) | 13.4 µM (inactive) | 27 µM (inactive) | 39.3 µM (inactive) | 14.9 µM (inactive) | 29.9 µM (inactive) | 27.8 µM (inactive) | 26.4 µM (inactive) | – | 20.9 µM (inactive)
OC1CN2Cc3cc4c(cc3[C@]13C=C[C@@H](O)CC23)OCO4 (stereo partly specified) | 33.6 µM (inactive) | 35.8 µM (inactive) | 33.4 µM (inactive) | 16.4 µM (inactive) | 27.6 µM (inactive) | 31.6 µM (inactive) | 45.6 µM (inactive) | 22.3 µM (inactive) | 20.2 µM (inactive) | 17 µM (inactive) | 10.9 µM (inactive) | 15.7 µM (inactive) | 25.1 µM (inactive) | 20.5 µM (inactive) | 12.4 µM (inactive) | 18.3 µM (inactive) | 21.3 µM (inactive) | 19.5 µM (inactive) | – | 21.2 µM (inactive)
O=C(c1ccccc1)n1c2ccc(Br)cc2c2nc3ccccc3nc21 | 45.8 µM (inactive) | > 100 µM (inactive) | > 100 µM (inactive) | 43.8 µM (inactive) | 43.2 µM (inactive) | 95.3 µM (inactive) | > 100 µM (inactive) | > 100 µM (inactive) | – | > 100 µM (inactive) | > 100 µM (inactive) | > 100 µM (inactive) | > 100 µM (inactive) | > 100 µM (inactive) | > 100 µM (inactive) | 67.6 µM (inactive) | > 100 µM (inactive) | – | 46.2 µM (inactive) | > 100 µM (inactive)
CCOC(=O)C(CS)NC(=O)CCCCCCCC(=O)NC(CS)C(=O)OCC (stereo unspecified) | > 100 µM (inactive) | 92 µM (inactive) | > 100 µM (inactive) | > 100 µM (inactive) | > 100 µM (inactive) | 36.9 µM (inactive) | > 100 µM (inactive) | > 100 µM (inactive) | > 100 µM (inactive) | > 100 µM (inactive) | > 100 µM (inactive) | – | > 100 µM (inactive) | > 100 µM (inactive) | 36.3 µM (inactive) | > 100 µM (inactive) | > 100 µM (inactive) | > 100 µM (inactive) | > 100 µM (inactive) | 25.8 µM (inactive)
CCOC(=O)C12OC(CCC1=O)C(C(=O)OC)=C2C(=O)OC (stereo unspecified) | > 10 µM (inactive) | > 10 µM (inactive) | > 10 µM (inactive) | > 10 µM (inactive) | > 10 µM (inactive) | > 10 µM (inactive) | > 10 µM (inactive) | > 10 µM (inactive) | > 10 µM (inactive) | > 10 µM (inactive) | > 10 µM (inactive) | > 10 µM (inactive) | > 10 µM (inactive) | > 10 µM (inactive) | > 10 µM (inactive) | > 10 µM (inactive) | – | > 10 µM (inactive) | 2.26 µM (inactive) | > 10 µM (inactive)
CON(C)C(=O)[C@H]1C[C@@]1(C)CO | > 100 µM (inactive) | > 100 µM (inactive) | > 100 µM (inactive) | > 100 µM (inactive) | > 100 µM (inactive) | > 100 µM (inactive) | – | > 100 µM (inactive) | > 100 µM (inactive) | > 100 µM (inactive) | > 100 µM (inactive) | > 100 µM (inactive) | > 100 µM (inactive) | > 100 µM (inactive) | > 100 µM (inactive) | > 100 µM (inactive) | > 100 µM (inactive) | > 100 µM (inactive) | > 100 µM (inactive) | –
CON(C)C(=O)C(C)NC(=O)OC(C)(C)C (stereo unspecified) | > 100 µM (inactive) | > 100 µM (inactive) | > 100 µM (inactive) | > 100 µM (inactive) | > 100 µM (inactive) | – | > 100 µM (inactive) | > 100 µM (inactive) | > 100 µM (inactive) | > 100 µM (inactive) | > 100 µM (inactive) | > 100 µM (inactive) | > 100 µM (inactive) | > 100 µM (inactive) | > 100 µM (inactive) | > 100 µM (inactive) | > 100 µM (inactive) | > 100 µM (inactive) | > 100 µM (inactive) | > 100 µM (inactive)
